The target in data set [1] is 3',5'-cyclic-AMP phosphodiesterase 4A (Homo sapiens, UniProt P27815). The data set can be described thus: Inhibitory activity against human PDE4A expressed isoform using construct representing the common region of spliced variants as GST-fusion protein in Sf9 cells.
Data set [2] is filed under the species Homo sapiens. The data set can be described thus: Inhibition of LPS-induced TNF-alpha production in human whole blood. It is filed as functional, organism-based.
Data set [3] in a line: Half life period after intravenous administration at 5 mg/kg in rat. It is filed as ADME, organism-based. The note with it: in vivo. Also noted: dose 5 mg/kg, route intravenous.
A short description of data set [4]: Cmax in rats after 20 mg/kg oral dose. The format is ADME, organism-based. Also noted: dose 20 mg/kg, route oral. The note with it: rat, in vivo.
Data set [5] concerns Cavia porcellus. The data set can be described thus: In vivo inhibition of ovalbumin-induced bronchoconstriction in conscious guinea pig at 1 mg/kg ip dose 30 hr prior to challenge. The format is functional. Particulars: route intraperitoneal.
The subject of data set [6] is Ovis aries. The experiment in a line: In vivo inhibition of ovalbumin-induced bronchoconstriction in sheep early phase at 20 mg/kg ip dose 30 hr prior to challenge. The note with it: route intraperitoneal. It is filed as functional.
For data set [7], the system named is Ovis aries. The data set can be described thus: In vivo inhibition of ovalbumin-induced bronchoconstriction in sheep late phase at 20 mg/kg ip dose 2 hr prior to challenge. It is filed as functional. The note with it: route intraperitoneal.
The nature of data set [8]: Oral bioavailability (dose 20 mg/kg p.o.). It is filed as ADME, organism-based. Particulars: rat, in vivo.
Data set [9] has as its system Mustela putorius furo. The experiment in a line: Emesis in ferrets at 30 mg/kg oral dose. The format is functional.
Data set [10] has as its system Ovis aries. The data set can be described thus: In vivo inhibition of ovalbumin-induced bronchoconstriction in sheep early phase at 2.0 mg/kg ip dose 4 hr prior to challenge. The format is functional. The note with it: route intraperitoneal.
The subject of data set [11] is Cavia porcellus. The experiment in a line: In vivo inhibition of ovalbumin-induced bronchoconstriction in conscious guinea pig at 1 mg/kg ip dose 4 hr prior 4 hr to challenge. The format is functional. The note with it: route intraperitoneal.
Data set [12] is described as follows: Cmax in ferrets after 30 mg/kg oral dose. Also noted: dose 30 mg/kg, route oral. Particulars: ferret, in vivo. The format is ADME, organism-based, Mustela putorius furo.
The subject of data set [13] is Ovis aries. The experiment in a line: In vivo inhibition of ovalbumin-induced bronchoconstriction in sheep late phase at 2.0 mg/kg ip dose 2 hr prior to challenge. The format is functional. Particulars: route intraperitoneal.

Activity calls are given as the source filed them.

3',5'-cyclic-AMP phosphodiesterase 4A, sequence (P27815 whole entry, looked up, stated change not applied, the tested form may be a part, canonical isoform): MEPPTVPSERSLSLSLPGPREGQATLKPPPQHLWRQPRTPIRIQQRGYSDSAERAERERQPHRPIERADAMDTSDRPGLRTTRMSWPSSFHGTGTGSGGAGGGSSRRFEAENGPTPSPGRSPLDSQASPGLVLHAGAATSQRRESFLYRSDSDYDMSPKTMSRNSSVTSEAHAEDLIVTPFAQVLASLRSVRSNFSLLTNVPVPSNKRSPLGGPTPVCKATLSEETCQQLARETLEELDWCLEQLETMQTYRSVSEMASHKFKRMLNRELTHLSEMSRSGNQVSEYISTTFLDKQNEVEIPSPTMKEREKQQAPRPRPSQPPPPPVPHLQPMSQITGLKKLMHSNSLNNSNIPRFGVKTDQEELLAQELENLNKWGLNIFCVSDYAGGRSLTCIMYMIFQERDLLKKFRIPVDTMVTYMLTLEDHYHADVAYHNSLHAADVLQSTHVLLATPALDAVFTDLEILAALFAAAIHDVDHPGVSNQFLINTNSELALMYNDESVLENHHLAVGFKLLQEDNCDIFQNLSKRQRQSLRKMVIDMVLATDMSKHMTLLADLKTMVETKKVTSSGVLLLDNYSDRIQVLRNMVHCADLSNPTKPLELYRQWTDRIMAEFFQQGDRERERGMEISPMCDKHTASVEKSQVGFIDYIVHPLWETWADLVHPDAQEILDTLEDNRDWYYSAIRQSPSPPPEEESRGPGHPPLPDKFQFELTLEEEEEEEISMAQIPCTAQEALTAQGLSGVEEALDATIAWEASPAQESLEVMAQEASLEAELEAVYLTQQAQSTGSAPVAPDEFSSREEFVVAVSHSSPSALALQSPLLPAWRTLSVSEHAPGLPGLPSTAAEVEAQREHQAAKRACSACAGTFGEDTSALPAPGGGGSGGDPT

Consider `CC(C)(Nc1ccc(C(Cc2cc[n+]([O-])cc2)c2ccc(OC(F)F)c(OC(F)F)c2)cn1)c1ccccc1` (stereo in doubt; 3n), for which the IC50 is 1.6 nM in data set [1] and 200 nM in data set [2].

Regarding `O=C(Cc1ccccc1)Nc1ccc(C(Cc2cc[n+]([O-])cc2)c2ccc(OC(F)F)c(OC(F)F)c2)cn1` (stereo not given), the IC50 was 7.8 nM in data set [1] and 3800 nM in data set [2] (Homo sapiens, Blood).

In data set [1], `[O-][n+]1ccc(CC(c2ccc(N3CCCC3)nc2)c2ccc(OC(F)F)c(OC(F)F)c2)cc1` (stereo not given) had an IC50 of 31 nM.

Consider `Cc1c[n+]([O-])ccc1CC(c1ccc(C(O)(C(F)(F)F)C(F)(F)F)cc1)c1ccc(OC(F)F)c(OC(F)F)c1` (stereo not given), for which the half-maximal inhibitory concentration (IC50) in [1] was determined as 1.3 nM; in data set [2] (Homo sapiens, Blood), 300 nM.

Take `CN(Cc1ccc2ccccc2c1)c1ccc(C(Cc2cc[n+]([O-])cc2)c2ccc(OC(F)F)c(OC(F)F)c2)cn1` (stereo not given): the IC50 was found to be 1.5 nM in data set [1] and 300 nM in data set [2] (Homo sapiens, Blood).

In the case of `CC(=O)Nc1ccc(C(Cc2cc[n+]([O-])cc2)c2ccc(OC(F)F)c(OC(F)F)c2)cn1` (stereo not given), the concentration for half-maximal inhibition (IC50) in data set [1] worked out at 33 nM; in [2] (Homo sapiens, Blood) it was 1800 nM.

As to `C[C@H](c1ccccc1)N(C)c1ccc(C(Cc2cc[n+]([O-])cc2)c2ccc(OC(F)F)c(OC(F)F)c2)cn1` (stereo not given in full), the IC50 in [1] amounted to 0.3 nM; in data set [2] (Homo sapiens, Blood), 700 nM.

As for `CC(C)(Nc1ccc(C(Cc2cc[n+]([O-])cc2)c2ccc(OC(F)F)c(OC(F)F)c2)cn1)c1ccccc1` (stereo in doubt; (+)-3n), the 50% inhibitory concentration (IC50) in [1] was 23 nM; in [2], 10000 nM.

In the case of `CCN(c1ccc(C(Cc2cc[n+]([O-])cc2)c2ccc(OC(F)F)c(OC(F)F)c2)cn1)[C@H](C)c1ccccc1` (stereo not given in full), the IC50 was 0.6 nM in data set [1] and 200 nM in data set [2] (Homo sapiens, Blood).

Consider `O=S(=O)(Nc1ccc(C(Cc2cc[n+]([O-])cc2)c2ccc(OC(F)F)c(OC(F)F)c2)cn1)c1ccccc1` (stereo not given), for which the IC50 amounted to 16 nM in [1] and 34000 nM in data set [2] (Homo sapiens, Blood).

Regarding `Nc1ccc(C(Cc2cc[n+]([O-])cc2)c2ccc(OC(F)F)c(OC(F)F)c2)cn1` (stereo not given), the IC50 was found to be 31 nM in [1] and 1600 nM in data set [2] (Homo sapiens, Blood).

In the case of `C[C@@H](Nc1ccc(C(Cc2cc[n+]([O-])cc2)c2ccc(OC(F)F)c(OC(F)F)c2)cn1)c1ccccc1` (stereo not given in full), the half-inhibitory concentration (IC50) was 1.7 nM in data set [1] and 900 nM in [2] (Homo sapiens, Blood).

For the compound `CCN(Cc1ccccc1)c1ccc(C(Cc2cc[n+]([O-])cc2)c2ccc(OC(F)F)c(OC(F)F)c2)cn1` (stereo not given), the IC50 in data set [1] was determined as 2.3 nM; in [2] (Homo sapiens, Blood), 400 nM.

Regarding `CCNC(=O)Nc1ccc(C(Cc2cc[n+]([O-])cc2)c2ccc(OC(F)F)c(OC(F)F)c2)cn1` (stereo not given), the IC50 in data set [1] is 8.3 nM; in data set [2] (Homo sapiens, Blood) it was 1700 nM.

With `CC(C)N(Cc1ccccc1)c1ccc(C(Cc2cc[n+]([O-])cc2)c2ccc(OC(F)F)c(OC(F)F)c2)cn1` (stereo not given), the concentration for half-maximal inhibition (IC50) in [1] amounted to 9.3 nM; in [2] (Homo sapiens, Blood), 1000 nM.

For the compound `CN(CCc1ccccc1)c1ccc(C(Cc2cc[n+]([O-])cc2)c2ccc(OC(F)F)c(OC(F)F)c2)cn1` (stereo not given), the IC50 in data set [1] worked out at 5.8 nM; in data set [2] (Homo sapiens, Blood) it was 800 nM.

On to `CC(C)(C)N(Cc1ccccc1)c1ccc(C(Cc2cc[n+]([O-])cc2)c2ccc(OC(F)F)c(OC(F)F)c2)cn1` (stereo not given), for which the half-inhibitory concentration (IC50) in [1] stood at 18 nM; in data set [2] (Homo sapiens, Blood), 17000 nM.

With `[O-][n+]1ccc(CC(c2ccc(NCc3ccccc3)nc2)c2ccc(OC(F)F)c(OC(F)F)c2)cc1` (stereo not given), the IC50 in [1] is 1.2 nM; in [2] (Homo sapiens, Blood), 400 nM.

Regarding `CN(c1ccccc1)c1ccc(C(Cc2cc[n+]([O-])cc2)c2ccc(OC(F)F)c(OC(F)F)c2)cn1` (stereo not given), the half-maximal inhibitory concentration (IC50) in data set [1] was determined as 0.8 nM; in data set [2] (Homo sapiens, Blood) it was 2100 nM.

Compound `CC(C)(Nc1ccc(C(Cc2cc[n+]([O-])cc2)c2ccc(OC(F)F)c(OC(F)F)c2)cn1)c1ccccc1` (single isomer, unassigned; (-)) had a half-life in [3] of 2 h. Also, the maximum concentration (Cmax) in data set [4] was determined as 2.4 µM. The Efficacy in [5] is given as 54%; in data set [6] it was 64%; in [7], 97%. Besides, the values for the IC50 in data set [1] and in data set [2] were 0.8 nM and 100 nM, respectively. The bioavailability in data set [8] turned out to be 100%.

Regarding `Cc1ccc(CCNc2ccc(C(Cc3cc[n+]([O-])cc3)c3ccc(OC(F)F)c(OC(F)F)c3)cn2)cc1` (stereo not given), the IC50 in [1] was 2.3 nM; in data set [2] (Homo sapiens, Blood), 800 nM.

Take `CN(Cc1ccccc1)c1ccc(C(Cc2cc[n+]([O-])cc2)c2ccc(OC(F)F)c(OC(F)F)c2)cn1` (stereo not given): the IC50 came out at 1.2 nM in [1] and 300 nM in data set [2] (Homo sapiens, Blood).

Consider `CC(C)Nc1ccc(C(Cc2cc[n+]([O-])cc2)c2ccc(OC(F)F)c(OC(F)F)c2)cn1` (stereo not given), for which the IC50 amounted to 12 nM in data set [1] and 800 nM in data set [2] (Homo sapiens, Blood).

Turning to `[O-][n+]1ccc(CC(c2ccc(C(O)(C(F)(F)F)C(F)(F)F)cc2)c2ccc(OC(F)F)c(OC(F)F)c2)cc1` (stereo not given), in [9], the Emesis_ED entry was “inactive”. The compound also displayed a half-life in data set [3] greater than 24 h. Moreover, the Efficacy in [10] is on record as 85%; in data set [11], 58%; in data set [13], 95%. The Cmax was determined as 3.5 µM in data set [4] and 16 µM in data set [12]. In [1], the IC50 is 4.2 nM. The compound further yielded a bioavailability in data set [8] of 70%.

For orientation: IC50 means the concentration that inhibits the measured activity by half. A higher IC50 goes with weaker potency. The half-life is the time needed for the level to fall by half in the phase considered. Low readings indicate rapid decline, high ones slow decline. The Cmax is the maximum level reached in the sampled fluid or tissue. In general, bioavailability refers to dose-corrected exposure relative to a reference, in per cent.

The values above are taken from ChEMBL document CHEMBL1136601, “Substituted aminopyridines as potent and selective phosphodiesterase-4 inhibitors” (Bioorg Med Chem Lett, 2003).
